Consider one compound from patent US20240285670A1, “THERAPEUTIC TREATMENT OF TUMORS BY BLOCKING THE HEME SYNTHESIS-EXPORT AXIS” (Università degli Studi di Torino, priority 2021, published 2024).

For the assay, the system named is ALAS1. Put plainly: Western blot analysis of ALAS1 expression in SKCO1 cells. The class given is cell-based, human. Conditions: 5 mM ALA for 16, 24 and 48 hours vs untreated. As for the experimental part:
(A) Heme content in SHSY5Y cells non-treated (NT) or treated with 5 mM ALA for 15 hours. Values are expressed as pmol heme/mg protein. Data represent mean±SEM, n=3; *=P<0.05. (B, C) qRT-PCR analysis of the expression of ALAS1 (B) and FLVCR1a (C) in SHSY5Y cells non-treated (NT) or treated with 5 mM ALA for 15 hours. Transcript abundance, normalized to beta-actin mRNA expression, is expressed as a fold increase over a calibrator sample. Data represent mean±SEM, n=4. For statistical analyses, an unpaired Student's t-test was used; *p<0.05. (D) qRT-PCR analysis of the expression of ALAS1 in SKCO1 cells untreated (NT) or treated with 5 mM ALA for 24 hours. Transcript abundance, normalized to beta-actin mRNA expression, is expressed as a fold increase over a calibrator sample. Data represent mean±SEM, n=5. […] Band intensities were measured by densitometry and normalized to beta-actin expression. […] (F) Proliferation of SHSY5Y cells assessed by crystal violet staining at different time points (starting from the day after plating, named “day 0”). Treatment with 5 mM ALA occurred at “day 0” and cells were monitored until the end of the experiment without medium refresh. […] (G) SKCO1 cells viability measured by the CellTiter-Fluor Cell Viability Assay (Promega, Madison, WI USA, catalog n°G6080) at different time points, starting from the day after plating (named “day 0”), as a readout of cell proliferation. […]
Background: In western blotting, separated proteins are transferred to a membrane and probed.

With `Cl.NCC(=O)CCC(=O)O` [5-ALA, 5-Aminolevulinic acid hydrochloride], the ALAS1 protein levels entry is reported as “decreased”.
